Results reported in ChEMBL document CHEMBL6103644, “Efficient and Selective Biosynthesis of a Precursor-Directed FK506 Analogue: Paving the Way for Click Chemistry” (J Nat Prod, 2025).
Active and inactive are the calls of the source. No cut-off for these calls is given here.

Columns and labels:
[1] = Cytotoxicity against C57BL/6 mouse CD4+ T cells assessed as increase in cell death at 0.5 to 100 nM incubated for 4 days by Live/Dead staining based flow cytometry; format: toxicity; settings: 96 h, 0.1 µM, dose 0.5-100 nM, time 4 day
[2] = test system: CD4+ T cell; experiment: Immunosuppressive activity in C57BL/6 mouse CD4+ T cells co-cultured with allogeneic bone marrow-derived BALB/c mouse dendritic cells assessed as inhibition of CD4+ T cell proliferation at 1 nM incubated for 4 days by CellTrace Violet staining based flow cytometry; format: functional; settings: time 4.0 day
[3] = Cytotoxicity against C57BL/6 mouse CD4+ T cells assessed as increase in cell death at >10 nM incubated for 4 days by Live/Dead staining based flow cytometry; format: toxicity; settings: 96 h, 0.01 µM, time 4 day
[4] = test system: CD4+ T cell; experiment: Immunosuppressive activity in C57BL/6 mouse CD4+ T cells co-cultured with allogeneic bone marrow-derived BALB/c mouse dendritic cells assessed as reduction in CD4+ T cell numbers at cell cycle 4 at 5 nM incubated for 4 days by CellTrace Violet staining based flow cytometry; format: functional; settings: time 4.0 day
[5] = Cytotoxicity against C57BL/6 mouse CD4+ T cells assessed as increase in cell death at 5 nM incubated for 4 days by Live/Dead staining based flow cytometry; format: toxicity; settings: 96 h, 0.005 µM, time 4 day

Row | Structure (SMILES) | Activity [1] | inhibition [2] | Activity [3] | Activity [4] | Activity [5]
1 | C=CC[C@@H]1/C=C(\C)C[C@H](C)C[C@H](OC)[C@H]2O[C@@](O)(C(=O)C(=O)N3CCCC[C@H]3C(=O)O[C@H](/C(C)=C/[C@@H]3CC[C@@H](O)[C@H](OC)C3)[C@H](C)[C@@H](O)CC1=O)[C@H](C)C[C@@H]2OC [TACROLIMUS ANHYDROUS] | Toxic | Active |  |  | 
2 | C#CC[C@@H]1/C=C(\C)C[C@H](C)C[C@H](OC)[C@H]2O[C@@](O)(C(=O)C(=O)N3CCCC[C@H]3C(=O)O[C@H](/C(C)=C/[C@@H]3CC[C@@H](O)[C@H](OC)C3)[C@H](C)[C@@H](O)CC1=O)[C@H](C)C[C@@H]2OC |  |  | Toxic | Active | Non-toxic
